US6214537A, “Synthetic peptides and mixtures thereof for detecting HIV antibodies” (Biochem Immunosystems, Inc., priority 1988, dated 2001)
Positions of bridges follow the written chain, without caps; N, C: chain ends. Residues, ends and D or L forms follow the SMILES beside them. No end group written: not given here.

Assays:
Format in all cases: binding, human
[1] = system: HIV-1 antibodies; assay: ELISA, single peptides identifying HIV-1 positive sera
Experimental: (§1) According to this test a peptide or a peptide mixture of the present invention is adsorbed onto the wells of a microtiter plate. The wells are then treated with sera to be tested. After washing, anti-human IgG labeled with peroxidase is added to the wells. The determination of the peroxidase is performed with a corresponding substrate, e.g. with o-phenylene diamine. Also in this procedure the peroxidase can be exchanged by another label, e.g. by a radioactive or fluorescence label.
(§2) Each well of the microtiter plate is saturated with 100 μl of a solution containing a peptide or mixture of peptides (5 μg/ml) and left overnight. The wells are emptied and washed twice with a washing buffer (Tris, 0.043M; NaCl, 0.5M;thimerosal, 0.01% w/v; Tween 20, 0.05% v/v; pH 7.4). The wells are then saturated with 0.35 ml of washing buffer for 1 hr. at 37° C. and washed once with the same buffer. Serum samples to be analyzed are diluted with specimen buffer (washing buffer plus casein, 0.05% w/v). The wells are rinsed with washing buffer prior to the addition of the diluted serum sample (0.1 ml). These are left to incubate for 1 hr. at room temperature. The wells are then emptied, washed twice rapidly and then once for two minutes with washing buffer. […] The wells are then emptied and washed twice rapidly with washing buffer and then five times in which the buffer was in contact with the well 2 minutes per washing.
(§3) The substrate solution (3,3', 5,5'-tetramethylbenzidine, 8 mg per ml of DMSO) is diluted with 100 volumes 0.1M citrate-acetate buffer, pH 5.6 containing 0.1% v/v of 30% H2 O2 and added to each well (0.1 ml per well). After 10 minutes the contents of each well is treated with 0.1 ml 2N H2 SO4 and the optical density read at 450 nm. All determinations are done in duplicate.

[2] = system: HIV-1-antibodies; assay: ELISA, cyclic versus non-cyclic peptides, sera at various dilutions
Experimental: TABLE 5 is provided to illustrate the sensitivity of cyclic versus noncyclic peptides in the ELISA test by comparing the results of some sera at various dilutions.
Plates used in this experiment were coated with solutions of peptides at 10 μg/ml. (Experimental results of TABLE 5 were obtained with plates coated with peptides at 0,5 μg/ml). Four different HIV-1 positive serum samples were serially diluted and their titers determined. The titer was defined as the serum dilution giving an absorbancy reading of 1:0 in the conditions of the ELISA procedure already described.
as §2, §3

[3] = system: HIV-2 antibodies; assay: ELISA, single peptides identifying HIV-2 positive sera; conditions: 5 tested
Experimental: as §1, with “A preferred convenient and classical technique for the determination of antibodies against AIDS virus using a peptide or a peptide mixture of the present invention is an enzyme-linked immunosorbent assay (ELISA). According” for “According”
The cyclic peptides of the present invention and their mixtures with one or more linear peptides were tested in accordance with the ELISA test described previously against a variety of sera, some of which were confirmed positive and others which were confirmed negative.
TABLE 4 provides the results of single peptides which were individually evaluated in identifying known HIV-2 positive sera.
as §2, §3

## NH2 -GCSGKLICTTAVPWNAS-COOH (H-GCSGKLICTTAVPWNAS-OH; cysteine pairing not given here) [Peptide 77, linear peptide, gp41 604-620]
[1]; ELISA, single peptide
  % Positive Sera correctly Identified: 100%
[2]; serum 87V103, dilution 1/50
  ELISA optical density: 0.000 optical density units
[2]; serum 1428, dilution 1/50
  ELISA optical density: 0.926 optical density units
[2]; serum M-5, dilution 1/50
  ELISA optical density: 1.719 optical density units
[2]; serum M-5, dilution 1/100
  ELISA optical density: 1.459 optical density units
[2]; serum M-5, dilution 1/200
  ELISA optical density: 1.248 optical density units
[2]; serum M-5, dilution 1/400
  ELISA optical density: 0.959 optical density units
[2]; serum M-5, dilution 1/800
  ELISA optical density: 0.057 optical density units
[2]; serum M-7, dilution 1/50
  ELISA optical density: 0.142 optical density units
[2]; serum M-7, dilution 1/100
  ELISA optical density: 0.025 optical density units
[2]; serum M-7, dilution 1/200
  ELISA optical density: 0.007 optical density units
[2]; serum M-7, dilution 1/400
  ELISA optical density: 0.001 optical density units
[2]; serum M-7, dilution 1/800
  ELISA optical density: 0.000 optical density units
[2]; serum M-8, dilution 1/50
  ELISA optical density: 0.795 optical density units
[2]; serum M-8, dilution 1/100
  ELISA optical density: 0.507 optical density units
[2]; serum M-8, dilution 1/200
  ELISA optical density: 0.376 optical density units
[2]; serum M-8, dilution 1/400
  ELISA optical density: 0.209 optical density units
[2]; serum M-8, dilution 1/800
  ELISA optical density: 0.062 optical density units
[2]; serum M-16, dilution 1/50
  ELISA optical density: 1.219 optical density units
[2]; serum M-16, dilution 1/100
  ELISA optical density: 0.962 optical density units
[2]; serum M-16, dilution 1/200
  ELISA optical density: 0.613 optical density units
[2]; serum M-16, dilution 1/400
  ELISA optical density: 0.301 optical density units
[2]; serum M-16, dilution 1/800
  ELISA optical density: 0.205 optical density units

## NH2 -VERYLKDQQLLGIWGCSGKLICTTAVPWNAS-COOH (H-VERYLKDQQLLGIWGCSGKLICTTAVPWNAS-OH; cysteine pairing not given here) [Peptide 81, linear peptide, gp41 590-620]
[1]; ELISA, single peptide
  % Positive Sera correctly Identified: 100%

## NH2 -CGVERYLKQQLLGIWGCSGKLICTTAVPWNASWSNKSLEQI-COOH [Peptide 99]
[1]; ELISA, single peptide
  % Positive Sera correctly Identified: 100%

## NH2 -CGYLKDQQLLGIWGCSGKLICTTAVPWNASWSNKSLEQI-COOH [Peptide 97]
[1]; ELISA, single peptide
  % Positive Sera correctly Identified: 100%

## CGKIEPLGVAPTKAKRRVVQREKR [Peptide 71]
[1]; ELISA, single peptide
  % Positive Sera correctly Identified: 83%

## CC[C@H](C)[C@H](NC(=O)[C@H](CCC(=O)O)NC(=O)[C@@H](NC(=O)[C@@H](N)CC(C)C)C(C)C)C(=O)N[C@H](C(=O)N1CCC[C@H]1C(=O)N[C@H](C(=O)NCC(=O)N[C@@H](Cc1ccccc1)C(=O)N[C@@H](C)C(=O)N1CCC[C@H]1C(=O)N[C@H](C(=O)N[C@@H](CCCCN)C(=O)N[C@@H](CCC(=O)O)C(=O)N[C@@H](CCCCN)C(=O)N[C@@H](CCCNC(=N)N)C(=O)N[C@@H](Cc1ccc(O)cc1)C(=O)N[C@@H](CO)C(=O)N[C@@H](CO)C(=O)N[C@@H](C)C(=O)N[C@@H](Cc1c[nH]cn1)C(=O)NCC(=O)N[C@@H](CCCNC(=N)N)C(=O)O)[C@@H](C)O)[C@@H](C)CC)[C@@H](C)O [Peptide 203]
[3]
  % Positive Sera correctly Identified: 100%

## CC[C@H](C)[C@H](NC(=O)[C@H](CCC(N)=O)NC(=O)[C@H](CCC(=O)O)NC(=O)[C@H](CC(C)C)NC(=O)[C@H](CO)NC(=O)[C@H](CCCCN)NC(=O)[C@H](CC(N)=O)NC(=O)[C@H](CO)NC(=O)[C@H](Cc1c[nH]c2ccccc12)NC(=O)[C@H](CO)NC(=O)[C@H](C)NC(=O)[C@H](CC(N)=O)NC(=O)[C@H](Cc1c[nH]c2ccccc12)NC(=O)[C@@H]1CCCN1C(=O)[C@@H](NC(=O)[C@H](C)NC(=O)[C@@H](NC(=O)[C@@H](NC(=O)[C@@H]1CSSC[C@H](NC(=O)CN)C(=O)N[C@@H](CO)C(=O)NCC(=O)N[C@@H](CCCCN)C(=O)N[C@@H](CC(C)C)C(=O)N[C@@H]([C@@H](C)CC)C(=O)N1)[C@@H](C)O)[C@@H](C)O)C(C)C)C(=O)O [Peptide 96] (H-GCSGKLICTTAVPWNASWSNKSLEQI-OH; disulfide 2-8)
[1]; ELISA, single peptide
  % Positive Sera correctly Identified: 100%

## CGNNPPIPVGE [Peptide 41, NH2 -CGNNPPIPVGE-COOH]
[1]; peptide Free
  % Positive Sera correctly Identified: 63%
[1]; peptide coupled
  % Positive Sera correctly Identified: 73%

## NH2 -GCSGKLICTTAVPWNASWSWSNKSLEQI-COOH [Peptide 95]
[1]; ELISA, single peptide
  % Positive Sera correctly Identified: 100%

## GHACVPTDPNPQEVVL [Peptide 14]
[1]; ELISA, single peptide
  % Positive Sera correctly Identified: 50%

## TTAVPWNASWSNKSLEQGC [Peptide 42]
[1]; ELISA, single peptide
  % Positive Sera correctly Identified: 5%

## NH2 -IWGCSGKLICTTAVPWNAS-COOH (H-IWGCSGKLICTTAVPWNAS-OH; cysteine pairing not given here) [Peptide 78, linear peptide, gp41 602-620]
[1]; ELISA, single peptide
  % Positive Sera correctly Identified: 100%

## NH2 -FAFAFGCSGKLICTTAVPWNASWSNKSLEQI-COOH [Peptide 91]
[1]; ELISA, single peptide
  % Positive Sera correctly Identified: 94%

## CGRAEQASQEVKN [Peptide 46, NH2 -CGRAEQASQEVKN-COOH]
[1]; peptide Free
  % Positive Sera correctly Identified: 0%
[1]; peptide coupled
  % Positive Sera correctly Identified: 93%

## NH2 -CGLGIWGCSGKLICTTAVPWNASWSNKSLEQI-COOH [Peptide 98]
[1]; ELISA, single peptide
  % Positive Sera correctly Identified: 100%

## CC[C@H](C)[C@H](NC(=O)CNC(=O)[C@H](CC(C)C)NC(=O)[C@H](CC(C)C)NC(=O)[C@H](CCC(N)=O)NC(=O)[C@H](CCC(N)=O)NC(=O)[C@H](CC(=O)O)NC(=O)[C@H](CCCCN)NC(=O)[C@H](CC(C)C)NC(=O)[C@H](Cc1ccc(O)cc1)NC(=O)[C@H](CCCNC(=N)N)NC(=O)[C@H](CCC(=O)O)NC(=O)[C@@H](N)C(C)C)C(=O)N[C@@H](Cc1c[nH]c2ccccc12)C(=O)NCC(=O)N[C@H]1CSSC[C@@H](C(=O)N[C@H](C(=O)N[C@H](C(=O)N[C@@H](C)C(=O)N[C@H](C(=O)N2CCC[C@H]2C(=O)N[C@@H](Cc2c[nH]c3ccccc23)C(=O)N[C@@H](CC(N)=O)C(=O)N[C@@H](C)C(=O)N[C@@H](CO)C(=O)O)C(C)C)[C@@H](C)O)[C@@H](C)O)NC(=O)[C@H]([C@@H](C)CC)NC(=O)[C@H](CC(C)C)NC(=O)[C@H](CCCCN)NC(=O)CNC(=O)[C@H](CO)NC1=O [Peptide 88] (H-VERYLKDQQLLGIWGCSGKLICTTAVPWNAS-OH; disulfide 16-22)
[1]; ELISA, single peptide
  % Positive Sera correctly Identified: 100%

## CC[C@H](C)[C@@H]1NC(=O)[C@H](CC(C)C)NC(=O)[C@H](CCCCN)NC(=O)CNC(=O)[C@H](CO)NC(=O)[C@@H](NC(=O)CN)CSSC[C@@H](C(=O)N[C@H](C(=O)N[C@H](C(=O)N[C@@H](C)C(=O)N[C@H](C(=O)N2CCC[C@H]2C(=O)N[C@@H](Cc2c[nH]c3ccccc23)C(=O)N[C@@H](CC(N)=O)C(=O)N[C@@H](C)C(=O)N[C@@H](CO)C(=O)O)C(C)C)[C@@H](C)O)[C@@H](C)O)NC1=O [Peptide 80] (H-GCSGKLICTTAVPWNAS-OH; disulfide 2-8)
[1]; ELISA, single peptide
  % Positive Sera correctly Identified: 100%
[2]; serum 87V103, dilution 1/50
  ELISA optical density: 0.003 optical density units
[2]; serum 1428, dilution 1/50
  ELISA optical density: 1.047 optical density units
[2]; serum M-5, dilution 1/50
  ELISA optical density: 2.104 optical density units
[2]; serum M-5, dilution 1/100
  ELISA optical density: 1.881 optical density units
[2]; serum M-5, dilution 1/200
  ELISA optical density: 1.599 optical density units
[2]; serum M-5, dilution 1/800
  ELISA optical density: 0.767 optical density units
[2]; serum M-7, dilution 1/50
  ELISA optical density: 0.191 optical density units
[2]; serum M-7, dilution 1/100
  ELISA optical density: 0.067 optical density units
[2]; serum M-7, dilution 1/200
  ELISA optical density: 0.019 optical density units
[2]; serum M-7, dilution 1/400
  ELISA optical density: 0.010 optical density units
[2]; serum M-7, dilution 1/800
  ELISA optical density: 0.005 optical density units
[2]; serum M-8, dilution 1/50
  ELISA optical density: 1.026 optical density units
[2]; serum M-8, dilution 1/100
  ELISA optical density: 0.737 optical density units
[2]; serum M-8, dilution 1/200
  ELISA optical density: 0.520 optical density units
[2]; serum M-8, dilution 1/400
  ELISA optical density: 0.340 optical density units
[2]; serum M-8, dilution 1/800
  ELISA optical density: 0.159 optical density units
[2]; serum M-16, dilution 1/50
  ELISA optical density: 1.601 optical density units
[2]; serum M-16, dilution 1/100
  ELISA optical density: 1.300 optical density units
[2]; serum M-16, dilution 1/200
  ELISA optical density: 0.903 optical density units
[2]; serum M-16, dilution 1/400
  ELISA optical density: 0.583 optical density units
[2]; serum M-16, dilution 1/800
  ELISA optical density: 0.329 optical density units

## NH2 -SGKLICTTAVPWNASWSNKSLEQGC-COOH [Peptide 56]
[1]; ELISA, single peptide
  % Positive Sera correctly Identified: 100%
